Experimental data published in patent publication US20250122191A1, “COMPOUNDS AS BCL-2 INHIBITORS” (Fochon Biosciences, Ltd, priority 2021, published 2025).

The molecules below were run on Toledo cells (assay: Cell proliferation assay (MTS), Toledo cells). Details: Homo sapiens, 72 h.
Type: cell-based
Experimental: MTS testing kit was purchased from Promega (Madison, WI, USA). The RPMI-1640, Fetal bovine serum and Penicillin-Streptomycin were purchased from BI (Biological Industries, Beit Haemek, Israel). Dimethyl sulfoxide (DMSO) was purchased from Sigma (St. Louis., MO, USA). Toledo (ATCC catalog #: CRL-2631) cells were cultured in RPMI-1640 supplemented with Penicillin-Streptomycin and 10% FBS.
To investigate whether a compound is able to inhibit the activity of BCL-2 in cells, a mechanism-based assay using Toledo lines was developed. In this assay, the inhibition of BCL-2 was reflected by the inhibition of cell proliferation of Toledo cells. Cells were plated into 96-well plates at the optimized cell density of 30000 cells/well. Plates were incubated at 37° C., with 5% CO2 for 4 h. Compounds were serially diluted and added to the plates with the final concentrations of 10000, 3333.3, 1111.1, 370.4, 123.5, 41.2, 13.7, 4.6 and 1.5 nM. Plates were incubated at 37° C., with 5% CO2 for 72 h. 20 μl MTS was added into each well and the plates were incubated at 37° C., with 5% CO2 for exactly 2 h. The absorbance was measured by a microplate reader at 490 nm. IC50 was calculated using GraphPad Prism 5.0 software.

SMILES	IC50 [nM]
CCOc1nc2[nH]cc(F)c2cc1Oc1cc(N2CCC3(CC2)CC(N2CCN(Cc4ccc(OC)cn4)C[C@H]2c2ccccc2C(C)C)C3)ccc1C(=O)NS(=O)(=O)c1cnc(NC[C@H]2CC[C@](C)(O)CC2)c([N+](=O)[O-])c1 [Example 121, 2-((6-ethoxy-3-fluoro-1H-pyrrolo[2,3-b]pyridin-5-yl)oxy)-N-((6-((((1r,4r)-4-hydroxy-4-methylcyclohexyl)methyl)amino)-5-nitropyridin-3-yl)sulfonyl)-4-(2-((R)-2-(2-isopropylphenyl)-4-((5-methoxypyridin-2-yl)methyl)piperazin-1-yl)-7-azaspiro[3.5]nonan-7-yl)benzamide]	1
CCOc1nc2[nH]cc(F)c2cc1Oc1cc(N2CCC3(CC2)CC(N2CCN(C4CC4)C[C@H]2c2ccccc2C(C)C)C3)ccc1C(=O)NS(=O)(=O)c1cnc(NC[C@H]2CC[C@](C)(O)CC2)c([N+](=O)[O-])c1 [Example 144, 4-(2-((R)-4-cyclopropyl-2-(2-isopropylphenyl)piperazin-1-yl)-7-azaspiro[3.5]nonan-7-yl)-2-((6-ethoxy-3-fluoro-1H-pyrrolo[2,3-b]pyridin-5-yl)oxy)-N-((6-((((1r,4r)-4-hydroxy-4-methylcyclohexyl)methyl)amino)-5-nitropyridin-3-yl)sulfonyl)benzamide]	1
COc1nc2[nH]cc(F)c2cc1Oc1cc(N2CCC3(CC2)CC(N2CCN(C(C)=O)C[C@H]2c2ccccc2C(C)C)C3)ccc1C(=O)NS(=O)(=O)c1cnc(NC[C@H]2CC[C@](C)(O)CC2)c([N+](=O)[O-])c1 [Example 146, 4-(2-((R)-4-acetyl-2-(2-isopropylphenyl)piperazin-1-yl)-7-azaspiro[3.5]nonan-7-yl)-2-((3-fluoro-6-methoxy-1H-pyrrolo[2,3-b]pyridin-5-yl)oxy)-N-((6-((((1r,4r)-4-hydroxy-4-methylcyclohexyl)methyl)amino)-5-nitropyridin-3-yl)sulfonyl)benzamide]	1
CCOc1nc2[nH]cc(F)c2cc1Oc1cc(N2CCC3(CC2)CC(N2CCN(C(C)=O)C[C@H]2c2ccccc2C(C)C)C3)ccc1C(=O)NS(=O)(=O)c1cnc(NC[C@H]2CC[C@](C)(O)CC2)c([N+](=O)[O-])c1 [Example 147, 4-(2-((R)-4-acetyl-2-(2-isopropylphenyl)piperazin-1-yl)-7-azaspiro[3.5]nonan-7-yl)-2-((6-ethoxy-3-fluoro-1H-pyrrolo[2,3-b]pyridin-5-yl)oxy)-N-((6 ((((1r,4r)-4-hydroxy-4-methylcyclohexyl)methyl)amino)-5-nitropyridin-3-yl)sulfonyl)benzamide]	1
CC(=O)N1CCN(C2CC3(CCN(c4ccc(C(=O)NS(=O)(=O)c5cnc(NC[C@H]6CC[C@](C)(O)CC6)c([N+](=O)[O-])c5)c(Oc5cnc6[nH]cc(F)c6c5)c4)CC3)C2)[C@H](c2ccccc2C(C)C)C1 [Example 148, 4-(2-((R)-4-acetyl-2-(2-isopropylphenyl)piperazin-1-yl)-7-azaspiro[3.5]nonan-7-yl)-2-((3-fluoro-1H-pyrrolo[2,3-b]pyridin-5-yl)oxy)-N-((6-((((1r,4r)-4-hydroxy-4-methylcyclohexyl)methyl)amino)-5-nitropyridin-3-yl)sulfonyl)benzamide]	1
CCOc1nc2[nH]cc(F)c2cc1Oc1cc(N2CCC3(CC2)CC(N2CCN(Cc4ccncc4)C[C@H]2c2ccccc2C(C)C)C3)ccc1C(=O)NS(=O)(=O)c1cnc(NC[C@H]2CC[C@](C)(O)CC2)c([N+](=O)[O-])c1 [Example 238, 2-((6-ethoxy-3-fluoro-1H-pyrrolo[2,3-b]pyridin-5-yl)oxy)-N-((6-((((1r,4r)-4-hydroxy-4-methylcyclohexyl)methyl)amino)-5-nitropyridin-3-yl)sulfonyl)-4-(2-((R)-2-(2-isopropylphenyl)-4-(pyridin-4-ylmethyl)piperazin-1-yl)-7-azaspiro[3.5]nonan-7-yl)benzamide]	1
COc1nc2[nH]cc(F)c2cc1Oc1cc(N2CCC3(CC2)CC(N2CCN(Cc4ccc5c(c4)OCCO5)C[C@H]2c2ccccc2C(C)C)C3)ccc1C(=O)NS(=O)(=O)c1cnc(NC[C@H]2CC[C@](C)(O)CC2)c([N+](=O)[O-])c1 [Example 321, 4-(2-((R)-4-((2,3-dihydrobenzo[b][1,4]dioxin-6-yl)methyl)-2-(2-isopropylphenyl)piperazin-1-yl)-7-azaspiro[3.5]nonan-7-yl)-2-((3-fluoro-6-methoxy-1H-pyrrolo[2,3-b]pyridin-5-yl)oxy)-N-((6-((((1r,4r)-4-hydroxy-4-methylcyclohexyl)methyl)amino)-5-nitropyridin-3-yl)sulfonyl)benzamide]	1
CC(C)c1ccccc1[C@@H]1CN(Cc2ccc3c(c2)OCCO3)CCN1C1CC2(CCN(c3ccc(C(=O)NS(=O)(=O)c4cnc(NC[C@H]5CC[C@](C)(O)CC5)c([N+](=O)[O-])c4)c(Oc4cnc5[nH]cc(F)c5c4)c3)CC2)C1 [Example 322, 4-(2-((R)-4-((2,3-dihydrobenzo[b][1,4]dioxin-6-yl)methyl)-2-(2-isopropylphenyl)piperazin-1-yl)-7-azaspiro[3.5]nonan-7-yl)-2-((3-fluoro-1H-pyrrolo[2,3-b]pyridin-5-yl)oxy)-N-((6-((((1r,4r)-4-hydroxy-4-methylcyclohexyl)methyl)amino)-5-nitropyridin-3-yl)sulfonyl)benzamide]	1
CC(C)c1ccccc1[C@@H]1CN(Cc2ccc(S(C)(=N)=O)cc2)CCN1C1CC2(CCN(c3ccc(C(=O)NS(=O)(=O)c4cnc(NC[C@H]5CC[C@](C)(O)CC5)c([N+](=O)[O-])c4)c(Oc4cnc5[nH]cc(F)c5c4)c3)CC2)C1 (stereo partly drawn) [Example 337, 2-((3-fluoro-1H-pyrrolo[2,3-b]pyridin-5-yl)oxy)-N-((6-((((1r,4r)-4-hydroxy-4-methylcyclohexyl)methyl)amino)-5-nitropyridin-3-yl)sulfonyl)-4-(2-((2R)-2-(2-isopropylphenyl)-4-(4-(S-methylsulfonimidoyl)benzyl)piperazin-1-yl)-7-azaspiro[3.5]nonan-7-yl)benzamide]	1
CC(C)c1ccccc1[C@@H]1CN(Cc2ccc(OC(F)F)cc2)CCN1C1CC2(CCN(c3ccc(C(=O)NS(=O)(=O)c4cnc(NC[C@H]5CC[C@](C)(O)CC5)c([N+](=O)[O-])c4)c(Oc4cnc5[nH]cc(F)c5c4)c3)CC2)C1 [Example 343, 4-(2-((R)-4-(4-(difluoromethoxy)benzyl)-2-(2-isopropylphenyl)piperazin-1-yl)-7-azaspiro[3.5]nonan-7-yl)-2-((3-fluoro-1H-pyrrolo[2,3-b]pyridin-5-yl)oxy)-N-((6-((((1r,4r)-4-hydroxy-4-methylcyclohexyl)methyl)amino)-5-nitropyridin-3-yl)sulfonyl)benzamide]	1
